Data published in US20180186968A1, “AGENT FOR SUPPRESSING ODORS OF POLYSULFIDE COMPOUNDS” (KAO CORPORATION, priority 2015, published 2018).

Columns and labels:
[1] = Sensory test of odor-suppressing effect for polysulfide compounds; type: in vivo, human; conditions: for odor intensity of DMTS (sensory evaluation): 0.01% (v/v) DMTS and 0.1% (v/v) test substance in mineral oil, 11 evaluators, FIG. 7; for odor intensity of DMDS (sensory evaluation): 0.1% (v/v) DMDS and 0.1% (v/v) test substance in mineral oil, 10 evaluators, FIG. 6
Description: The odor-suppressing effect of each of trimethylhexyl aldehyde (THA), cis-4-heptenal, and 1,4-cineol, as the OR4S2 antagonists identified in Example 2, for polysulfide compounds was checked in a sensory test.
For each of DMDS, THA, cis-4-heptenal, and 1,4-cineol, a 0.1% (v/v) solution in mineral oil was prepared. For DMTS, a 0.01% (v/v) solution in mineral oil was prepared. Two cotton balls were put in 20 mL glass bottle (Maruemu Corporation, No. 6), and one cottonball was impregnated with 30 μL of the DMDS or DMTS solution, and the other cotton ball was impregnated with 30 μL of a solution of one of the three OR4S2 antagonists. The glass bottle containing the cotton balls was covered with a lid, and left to stand at 37° C. for 1 hour, and thereafter used as a test sample for a sensory test. Glass bottles containing only cotton ball impregnated with the DMDS or DMTS solution were prepared as reference samples, and a glass bottle containing only cotton ball impregnated with mineral oil (Vehicle) was prepared as a control sample.
A sensory test was performed in a single-blinded mode with 10 evaluators for DMDS and 11evaluators for DMTS. The test was initiated after two o'clock pm, which was 1.5 hours or longer after a meal. To prevent diffusion of a smell, the test was performed essentially under a fume hood. To eliminate the influence of adaptation to odors of polysulfide compounds, the evaluators were appropriately checked for the intensity of recognition to the odor of DMDS or DMTS in the test, and rested as necessary. The evaluators were separated into two groups, and one group evaluated the odor-suppressing effect for DMDS or DMTS with respect to THA, cis-4-heptenal, and 1,4-cineol, in the presented, and the other group evaluated in with respect to 1,4-cineol, cis-4-heptenal, and THA, in the order presented. Each test sample was replaced with another one after evaluation by each of three evaluators.
In evaluation of odors of test samples, the following criteria in five grades were set for each evaluator; “odor of DMDS (or DMTS) was 1: unidentifiable, 2: perceivable, 3: easily identifiable, 4: strong, 5: intolerably strong”, and the evaluators rated the odor intensity of DMDS (or DMTS) for each test sample in nine grades from 1.0 to 5.0 at an interval of 0.5, where the odor intensity of single DMDS (or DMTS) was assumed as 3. The average value of the evaluation results by the evaluators was determined.

[2] = target: T1, olfactory receptor OR4S2 (Homo sapiens, UniProt Q8NH73); test: Luciferase reporter gene assay: suppression of OR4S2 response to DMDS or DMTS by test substance (OR4S2 antagonist search); type: cell-based; conditions: for response of OR4S2 to DMDS in the presence of test substance (Response %): DMDS 1 mM, test substance 0 to 3000 μM, FIG. 4; for response of OR4S2 to DMTS in the presence of test substance (Fold increase): DMTS 300 μM, test substance 100 μM, FIG. 5
T1 construct: Flag-Rho tag (N); expressed in transfected cells; host or cells: HEK293
T1 sequence (Q8NH73 1-311): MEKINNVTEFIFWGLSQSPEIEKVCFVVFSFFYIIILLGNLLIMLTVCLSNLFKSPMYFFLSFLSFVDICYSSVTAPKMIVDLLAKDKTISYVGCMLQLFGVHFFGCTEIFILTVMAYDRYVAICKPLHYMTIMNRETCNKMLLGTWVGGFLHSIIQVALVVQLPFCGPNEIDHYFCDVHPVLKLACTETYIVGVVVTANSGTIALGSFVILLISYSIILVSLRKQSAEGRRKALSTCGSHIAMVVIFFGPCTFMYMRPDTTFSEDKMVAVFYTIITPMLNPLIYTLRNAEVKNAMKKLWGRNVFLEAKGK
Description: By using the same procedure as in Example 1 (1) to (3), HEK293 cells expressing OR4S2 (SEQ ID NO: 1) were prepared. The response of the olfactory receptor to DMDS (the value fLuc/hRluc) was measured in the presence and absence of a test substance by using luciferase reporter gene assay in accordance with the procedure in Example 1 (4). The value fLuc/hRluc induced by a stimulus of single DMDS, (X), the value fLuc/hRluc for cells without a stimulus of DMDS, (Y), and the value fLuc/hRluc induced by a co-stimulus of DMDS and a test substance, (Z), were determined, and the intensity of the response (Response (%)) of the receptor to DMDS in the presence of a test substance was determined by using the following formula.
Response (%)=(Z−Y)/(X−Y)×100
The experiment s performed independently three times, and the average value of the experiments was determined. The concentration of DMDS to be added to a culture was set a 1 mM, and the concentration of a test substance to be added was changed in the range of 0 to 3000 μM.
For the response to DMTS, the value fLuc/hRluc to a stimulus of single DMTS, (X′), was divided by the value fLuc/hRluc for cells without a stimulus of DMTS, (Y), and the calculated value, (X′/Y), was calculated as a value of the response to DMTS Fold increase). To compare the effect of a test substance on the response to DMTS, the value fLuc/hRluc induced by a co-stimulus of DMTS and a test substance, (Z′), was similarly divided by the value fLuc/hRluc for cells without a stimulus, (Y), to calculate (Z′/Y) as Fold increase. The experiment was performed independently three times, and the average value of the experiments was determined. The concentration of DMTS to be added to a culture was set at 300 μM, and the concentration of a test substance to be added set at 100 μM.

[3] = target: T1, olfactory receptor OR4S2; test: Luciferase reporter gene assay: response of olfactory receptor to sulfur compounds; type: cell-based; conditions: for response of olfactory receptor OR4S2 to polysulfide compound (fold increase): 100 μM polysulfide compound, 428 olfactory receptors measured, HEK293 cells, FIG. 1; for response of OR4S2 at different concentrations: HEK293 cells expressing OR4S2, FIG. 2
From the text: A human olfactory receptor cloned using the PCR method with human genomic DNA (G1521:Promega Corporation) as a template on the basis of sequence information registered in GenBank. Each gene amplified through the PCR method was incorporated into a pENTR vector (Invitrogen) in accordance with the manual, and recombined, by utilizing the NotI and AscI sites present in the pENTR vector, with a pME18S vector at the NotI and AscI sites produced in the downstream of he Flag-Rho tag sequence of the pME18S vector. • (2) Preparation of pME18S-human RTP1S Vector
A vector expressing receptor-transporting protein (RTP), a protein which promotes the expression of an olfactory receptor polypeptide on the cell membrane, was prepared. Specifically, a gene encoding human RTP1S (GI: 50234917) was incorporated into a pME18S vector at the EcoRI and XhoI sites thereof. • (3) Preparation of Olfactory Receptor-expressing Cells
HEK293 cells expressing any one of human olfactory receptors were produced. A reaction solution with a composition shown in Table 2 was prepared and left to stand in a clean bench for 15 minutes, and then added to each well of a 96-well plate (BD Biosciences). Subsequently, 90 μL of HEK293 cells (3×10^5 cells/cm^2) was seeded in each well, and cultured in an incubator retained at 37° C. and 5% CO2 for 24 hours. As a control, cells with conditions for no expression of an olfactory receptor (Mock) were prepared and used in an experiment.
An olfactory receptor expressed on HEK293 cells increases the intracellular cAMP level through conjugation with the intracellular Gas followed by resulting activation of adenylate cyclase. For smell response measurement in this study, luciferase reporter gene assay was used in which increase of the intracellular cAMP level is monitored as an emission value derived from a firefly luciferase gene (fluc2P-CRE-hygro). Transgenesis was simultaneously performed by using a product with a sea pansy luciferase gene fused to the downstream of the CMV promoter (hRluc-CMV), and the resultant was used as an internal standard to correct errors of transgenesis efficiency and the number of cells.
The medium was removed from the culture prepared in the above(3), and 75 μL of a solution containing a polysulfide compound prepared with DMEM (NACALAI TESQUE, INC.) was added. The polysulfide compound was 100 μM of dimethyl disulfide (DMDS) or dimethyl trisulfide (DMTS). The cells were cultured in a CO2 incubator for 3 hours to allow the luciferase gene to be sufficiently expressed in the cells. Measurement of the activity of luciferase was performed by using a Dual-Glo (TM) luciferase assay system (Promega Corporation) in accordance with an operation manual of the product. For each stimulus condition, the value fLuc/hRluc was calculated by dividing the emission value derived from sea pansy luciferase. The value fLuc/hRluc derived from firefly luciferase and induced by a stimulus of a polysulfide compound was divided by the value fLuc/hRluc for cells without a stimulus of a polysulfide compound to calculate a fold increase, and the fold increase was used as an indicator of intensity of response. • (5) Results

| response of OR4S2 to DMTS in the presence of test substance (Fold increase) [2] | Molecule | odor intensity of DMTS (sensory evaluation) [1] | odor intensity of DMDS (sensory evaluation) [1] | response of OR4S2 to DMDS in the presence of test substance (Response %) [2] | also measured |
| --- | --- | --- | --- | --- | --- |
| suppressed the response of OR4S2 to DMTS | CC(C)C12CCC(C)(CC1)O2 [1,4-cineol, 1,4-Cineole] | suppressed the odor intensity | suppressed the odor intensity | suppressed the response of OR4S2 to DMDS in a concentration-dependent manner |  |
|  | CSSC [DMDS, Dimethyl disulfide] |  |  |  | response of olfactory receptor OR4S2 to polysulfide compound (fold increase) [3]: exhibits a specific response; response of OR4S2 at different concentrations [3]: concentration-dependent manner |
|  | CSSSC [DMTS, Dimethyl trisulfide] |  |  |  | response of olfactory receptor OR4S2 to polysulfide compound (fold increase) [3]: exhibits a specific response; response of OR4S2 at different concentrations [3]: concentration-dependent manner |
| suppressed the response of OR4S2 to DMTS | CC(CC=O)CC(C)(C)C (stereo not drawn) [Trimethylhexyl aldehyde, 3,5,5-Trimethylhexanal] | suppressed the odor intensity | suppressed the odor intensity | suppressed the response of OR4S2 to DMDS in a concentration-dependent manner |  |
| suppressed the response of OR4S2 to DMTS | CCCCOC(=O)C(C)CC (stereo not drawn) [butyl 2-methylbutanoate, Butyl 2-methylbutanoate] |  |  | suppressed the response of OR4S2 to DMDS in a concentration-dependent manner |  |
| suppressed the response of OR4S2 to DMTS | CC/C=C\CCC=O [cis-4-heptenal, (Z)-Hept-4-enal] | suppressed the odor intensity | suppressed the odor intensity | suppressed the response of OR4S2 to DMDS in a concentration-dependent manner |  |
|  | C=C(C)[C@H]1CC=C(C)CC1 [dipentene, Dipentene] |  |  | suppressed the response of OR4S2 to DMDS in a concentration-dependent manner |  |
|  | CS [methylmercaptan, Methylmercaptan] |  |  |  | response of OR4S2 to methylmercaptan ([3]; 3 mm test substance, FIG. 3): did not respond |

| Molecule | response of OR4S2 to DMTS in the presence of test substance (Fold increase) [2] | odor intensity of DMTS (sensory evaluation) [1] | odor intensity of DMDS (sensory evaluation) [1] | response of OR4S2 to DMDS in the presence of test substance (Response %) [2] | also measured |
| --- | --- | --- | --- | --- | --- |
| CC1=CC=C(C(C)C)CC1 [α-terpinene, p-Mentha-1,3-diene] | suppressed the response of OR4S2 to DMTS |  |  | suppressed the response of OR4S2 to DMDS in a concentration-dependent manner |  |
| (+)-Limonene oxide | suppressed the response of OR4S2 to DMTS |  |  | suppressed the response of OR4S2 to DMDS in a concentration-dependent manner |  |
